The values below come from article PMC7930564, “First Case of Glyphosate Resistance in Bromus catharticus Vahl.: Examination of Endowing Resistance Mechanisms” (Frontiers in Plant Science, 2021).

The structures appear in SMILES notation.

In the experiment the test system is T1, EPSPS (5-enolpyruvylshikimate-3-phosphate synthase), glyphosate-resistant (R) population.
T1 construct: native enzyme in leaf extract (total soluble protein) of R plants, not recombinant; no target-site substitution at codons 101, 102, 103, 106, 144, 192; homoeologous copies not resolved
As to the kind of experiment: phosphate release, EnzChek Phosphate Assay Kit, […] nm, leaf extract. Particulars: substrates phosphoenolpyruvate and shikimate-3-phosphate; glyphosate 0 to 5,000 μM; Figure 6 legend fit prints 0.16; read-out: I50. The experiment is classed as biochemical, Bromus catharticus.

In the case of `O=C(O)CNCP(=O)(O)O` [glyphosate, N-phosphonomethyl glycine], the IC50 worked out at 150 nM.
